Measured values reported in PubChem BioAssay (NCI).
“And” between values parts separate entries of the source, which are not always exact repeats. Equal values may be shown once.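 All cell lines were grown in 96-well plates and treated with compound for 48 hours. GI50 marks 50% less growth. TGI denotes the concentration required for complete inhibition of growth.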

What was measured:
Assay in all cases: inhibition of tumour cell growth, NCI panel, 48 h
SNB-75 CNS = test system: SNB-75 CNS
OVCAR-8 ovarian = test system: OVCAR-8 ovarian
SNB-19 CNS = test system: SNB-19 CNS
DU-145 prostate = test system: DU-145 prostate
UACC-62 melanoma = test system: UACC-62 melanoma
UO-31 renal = test system: UO-31 renal
SW-620 colon = test system: SW-620 colon
HCT-116 colon = test system: HCT-116 colon
HOP-62 NSCLC = test system: HOP-62 NSCLC
SF-295 CNS = test system: SF-295 CNS

SMILES | GI50 (SNB-75 CNS) | TGI (SNB-75 CNS) | GI50 (OVCAR-8 ovarian) | TGI (OVCAR-8 ovarian) | GI50 (SNB-19 CNS) | TGI (SNB-19 CNS) | GI50 (DU-145 prostate) | TGI (DU-145 prostate) | GI50 (UACC-62 melanoma) | TGI (UACC-62 melanoma) | GI50 (UO-31 renal) | TGI (UO-31 renal) | GI50 (SW-620 colon) | TGI (SW-620 colon) | GI50 (HCT-116 colon) | GI50 (HOP-62 NSCLC) | TGI (HOP-62 NSCLC) | GI50 (SF-295 CNS) | TGI (SF-295 CNS) | TGI (HCT-116 colon)
CC(=O)NCCc1c2c(c3nccc4c3c1Nc1ccccc1-4)OCS2 | 15.3 µM | 70.4 µM | 2.09 µM | > 33.1 µM | 3.17 µM | 18.8 µM | 1.06 µM | 2.48 µM | 5.5 µM | 19.3 µM | 1.05 µM | 6.37 µM | 0.226 µM | 8.15 µM | 2.22 µM | 3.6 µM | 34.1 µM | 1.87 µM | 15.1 µM | 
Clc1ccc(CSC(Cn2ccnc2)c2ccc(Cl)cc2Cl)cc1 (centres undefined) | 2.13 µM | 8.04 µM | 1.6 µM | 3.32 µM | 1.52 µM | 2.89 µM | 2.09 µM | 4.64 µM | 1.17 µM | 2.43 µM | 1.38 µM | 4.48 µM | 1.59 µM | 3.1 µM | 1.26 µM | 1.41 µM | 2.73 µM | 1.37 µM | 2.89 µM | 2.51 µM
O=C(Nc1ccc(Cl)c(Cl)c1)c1cccc(NC2=C(Cl)C(=O)N(Cc3ccccc3)C2=O)c1 | > 100 µM | > 100 µM | 31.6 µM | 89.5 µM | > 100 µM | > 100 µM | 20.6 µM | > 100 µM | 37.1 µM | > 100 µM | 34.6 µM | > 100 µM | 48.8 µM | > 100 µM | 27.8 µM | > 100 µM | > 100 µM | 49.7 µM | > 100 µM | > 100 µM
COc1ccc(-c2cc(-c3cc(Cl)ccc3Cl)nc3n[nH]c(N)c23)cc1 | 20.9 µM | > 100 µM | 32 µM | > 100 µM | 31.8 µM | > 100 µM | 36 µM | > 100 µM | 41.9 µM | > 100 µM | 27.9 µM | > 100 µM | 8.16 µM | > 100 µM | 6.32 µM | 14.7 µM | 84.6 µM | 6.62 µM | > 100 µM | 29.3 µM
CC[C@]12CCCN3CCc4c(n(c5ccccc45)C(=O)C1)[C@@H]32 |  | 78.4 µM |  | > 100 µM |  | > 100 µM |  | > 92.7 µM |  | > 100 µM |  | > 100 µM |  | > 65 µM |  |  | > 100 µM |  | 18.4 µM | > 49.6 µM
COc1cccc2c1C(=O)C=CC2=O |  | 29.9 µM |  | 9.97 µM |  | 29.3 µM |  | 33.5 µM |  | 25.3 µM |  | 28.9 µM |  | 23.6 µM |  |  | 34.4 µM |  | 29.2 µM | 12.1 µM
CC1(C)N=C(N)N=C(N)N1c1cccc(CCCCc2cccc(S(=O)(=O)F)c2)c1 | 0.98 µM | 23.7 µM | 4.84 µM | > 100 µM | 1.53 µM | > 77.7 µM | 1.17 µM | > 100 µM | 0.281 µM | 18 µM | > 100 µM | > 100 µM | 0.342 µM | > 100 µM | 0.445 µM | 3.04 µM | > 47.9 µM | 2.45 µM | > 100 µM | > 100 µM
CN(C)CCOc1ccc(-c2nc(-c3ccc4c(c3)CC/C4=N\O)c(-c3ccncc3)[nH]2)cc1 | 0.403 µM and 1.11 µM | 5.48 µM and 11 µM | 4.84 µM and 3.2 µM | 10.1 µM and 8.96 µM | 5.29 µM and 5.01 µM | 10.8 µM and 9.56 µM | 4.11 µM and 9.02 µM | 7.82 µM and 17.4 µM | 0.0177 µM and 0.0275 µM | 2.55 µM and 0.876 µM | 5.61 µM and 18.8 µM | 10 µM and 45.6 µM | 4.07 µM and 2.15 µM | 7.72 µM and 4.78 µM | 3.29 µM and 1.84 µM | 4.3 µM and 4.48 µM | 9.23 µM and 13.1 µM | 4.6 µM and 8.82 µM | 9.42 µM and 21.4 µM | 7.8 µM and 6.72 µM
COc1ccc2oc(=O)cc(C(c3ccc[nH]3)c3ccc[nH]3)c2c1 | 0.123 µM | 11.8 µM | 0.116 µM | 14.2 µM | 0.132 µM | 16.4 µM |  | 12.8 µM | 0.152 µM | 14 µM | 0.127 µM | 11.9 µM | 0.12 µM | 16.8 µM | 0.328 µM | 0.107 µM | 11.7 µM | 0.092 µM | 0.214 µM | 10.6 µM
Clc1ncnc(Cl)c1Cl |  | > 100 µM |  | > 100 µM |  | > 100 µM |  | > 100 µM |  | > 100 µM |  | > 100 µM |  | > 100 µM |  |  | > 100 µM |  | > 100 µM | > 100 µM
CC(=O)N[C@@H](Cc1ccc(OP(=O)(O)O)cc1)C(=O)N[C@H]1CCC(=O)N2CCC[C@@H](C(=O)NCc3ccc(Cl)cc3)N2C1=O | > 25 µM | > 25 µM | > 25 µM | > 25 µM | > 25 µM | > 25 µM | > 25 µM | > 25 µM | > 25 µM | > 25 µM | > 25 µM | > 25 µM | > 25 µM | > 25 µM | > 25 µM | > 25 µM | > 25 µM | > 25 µM | > 25 µM | > 25 µM
COc1ccc(OC)c(/C=N/NC(=O)Cc2csc3nc(-c4ccc(Br)cc4)cn23)c1 | 23.9 µM | 65.4 µM | 11.6 µM | 38.2 µM | 31.4 µM | > 100 µM | 17.9 µM | 48 µM | 12.1 µM | 27.7 µM | 60.6 µM | > 100 µM | 6.44 µM | 49.1 µM | 4.57 µM | 13.2 µM | 30.3 µM | 12.3 µM | 34.6 µM | 15.9 µM
O=C(O)C/C(=C\c1ccco1)C(=O)O |  | > 100 µM |  | > 100 µM |  | > 100 µM |  | > 100 µM |  | > 100 µM |  | > 100 µM |  | > 100 µM |  |  | > 100 µM |  | > 100 µM | > 100 µM
CC(C)[C@]12O[C@H]1[C@@H]1O[C@]13[C@]1(O[C@H]1C[C@H]1C4=C(CC[C@@]13C)C(=O)OC4)[C@@H]2O | 0.0168 µM | 0.035 µM and 0.0398 µM | 0.0285 µM |  | 0.0627 µM | > 100 µM | 0.0163 µM | > 100 µM | 0.011 µM | 0.0241 µM and 0.026 µM | 0.0183 µM | > 100 µM | < 0.01 µM |  | < 0.01 µM | 0.0248 µM |  |  | 0.646 µM and 0.934 µM | > 100 µM
CC[C@]1(O)CC(OC2CC(N(C)C)C(O)C(C)O2)c2c(cc3c(c2O)C(=O)c2c(O)cccc2C3=O)[C@@H]1C(=O)OC (some centres undefined) |  | 1.42 µM |  | 5.11 µM |  | 7.03 µM |  | 12.9 µM |  | 0.904 µM |  | 0.635 µM |  | 3.95 µM |  |  | 2.14 µM |  | 3.31 µM | 10.4 µM
